In article PMC6896485, “Aryl derivatives of 3H-1,2-benzoxathiepine 2,2-dioxide as carbonic anhydrase inhibitors” (Journal of Enzyme Inhibition and Medicinal Chemistry, 2019):
Where two headings read alike, the source gives them in different places.

Experiments:
[1] = biological target: T1, hCA XII (Homo sapiens, UniProt O43570); experiment: stopped-flow CO2 hydration; format: biochemical; details: read-out: KI (nM) ^* / CA XII
T1 construct: gene CA12; recombinant, obtained in-house
Text: (§1) stopped-flow CO2 hydration on hCA XII

[2] = biological target: T2, hCA IX (Homo sapiens, UniProt Q16790); experiment: stopped-flow CO2 hydration; format: biochemical; details: read-out: KI (nM) ^* / CA IX
T2 construct: gene CA9; recombinant, obtained in-house
Text: stopped-flow CO2 hydration on hCA IX

[3] = stopped-flow CO2 hydration; format: biochemical, Homo sapiens; details: read-out: KI (nM) ^* / CA I
Text: as §1

[4] = CO2 […], Hepes pH […] Na2SO4, […] h preincubation at room temperature

T1 sequence (O43570 25-354): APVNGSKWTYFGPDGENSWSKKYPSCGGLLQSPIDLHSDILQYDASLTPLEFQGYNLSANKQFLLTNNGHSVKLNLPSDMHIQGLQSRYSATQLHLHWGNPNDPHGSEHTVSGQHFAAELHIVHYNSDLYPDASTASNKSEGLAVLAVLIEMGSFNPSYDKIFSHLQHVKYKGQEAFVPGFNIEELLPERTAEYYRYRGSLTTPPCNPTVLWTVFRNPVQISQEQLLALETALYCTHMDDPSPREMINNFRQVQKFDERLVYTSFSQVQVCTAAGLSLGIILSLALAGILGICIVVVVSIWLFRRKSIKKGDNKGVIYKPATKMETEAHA

Row | SMILES | Ki [1] [nM] | Ki [2] [nM] | Ki [1, 4] [nM] | Ki [3] [nM] | Ki [2, 4] [nM]
1 | CCOC(=O)c1ccc(-c2ccc3c(c2)C=CCS(=O)(=O)O3)cc1 [compound 12, 7–(4-(Ethoxycarbonyl)phenyl)-3H-1,2-benzoxathiepine 2,2-dioxide] | 2400 | 621 |  |  | 
2 | O=S1(=O)CC=Cc2ccc(-c3ccc(F)cc3)cc2O1 [compound 23, 8–(4-Fluorophenyl)-3H-1,2-benzoxathiepine 2,2-dioxide] |  | 95.2 | 77.9 |  | 
3 | O=S1(=O)CC=Cc2ccc(Br)cc2O1 [compound 20, 8-Bromo-3H-1,2-benzoxathiepine 2,2-dioxide] | 133 | 47.5 |  |  | 
4 | COc1ccc(-c2ccc3c(c2)OS(=O)(=O)CC=C3)cc1 [compound 22, 8–(4-Methoxyphenyl)-3H-1,2-benzoxathiepine 2,2-dioxide] | 169 | 63.1 |  |  | 
5 | O=S1(=O)CC=Cc2cc(I)ccc2O1 [compound 7, 7-Iodo-3H-1,2-benzoxathiepine 2,2-dioxide] | 455 | 66.2 |  |  | 
6 | COc1ccc(-c2ccc3c(c2)C=CCS(=O)(=O)O3)cc1 [compound 9, 7–(4-Methoxyphenyl)-3H-1,2-benzoxathiepine 2,2-dioxide] | 2930 | 408 |  |  | 
7 | O=S1(=O)CC=Cc2cc(-c3ccc(C(F)(F)F)cc3)ccc2O1 [compound 11, 7–(4-(Trifluoromethyl)phenyl)-3H-1,2-benzoxathiepine 2,2-dioxide] | 4020 | 221 |  |  | 
8 | O=S1(=O)CC=Cc2cc(-c3ccccc3)ccc2O1 [compound 8, 7-Phenyl-3H-1,2-benzoxathiepine 2,2-dioxide] | 1380 | 655 |  |  | 
9 | O=S1(=O)CC=Cc2ccc(-c3ccc(C(F)(F)F)cc3)cc2O1 [compound 24, 8–(4-(Trifluoromethyl)phenyl)-3H-1,2-benzoxathiepine 2,2-dioxide] | 248 |  |  |  | 44
10 | O=S1(=O)CC=Cc2cc(-c3ccc(F)cc3)ccc2O1 [compound 10, 7–(4-Fluorophenyl)-3H-1,2-benzoxathiepine 2,2-dioxide] | 890 | 331 |  |  | 
11 | O=S1(=O)CC=Cc2ccc(-c3ccccc3)cc2O1 [compound 21, 8-Phenyl-3H-1,2-benzoxathiepine 2,2-dioxide] | 473 | 105 |  |  | 
12 | CCOC(=O)c1ccc(-c2ccc3c(c2)OS(=O)(=O)CC=C3)cc1 [compound 25, 8–(4-(Ethoxycarbonyl)phenyl)-3H-1,2-benzoxathiepine 2,2-dioxide] | 289 | 79.8 |  |  | 

Second part, the molecule after the results:

Row | Ki [1] [nM] | Ki [2] [nM] | Ki [1, 4] [nM] | Ki [3] [nM] | Ki [2, 4] [nM] | SMILES
13 | 3820 | 755 |  |  |  | O=S1(=O)CC=Cc2cccc(Br)c2O1 [compound 29, 9-Bromo-3H-1,2-benzoxathiepine 2,2-dioxide]
14 |  | 47100 |  | > 100000 |  | O=S1(=O)CC=Cc2cccc(-c3ccc(C(F)(F)F)cc3)c2O1 [compound 33, 9–(4-(Trifluoromethyl)phenyl)-3H-1,2-benzoxathiepine 2,2-dioxide]
15 |  | 33700 |  | > 100000 |  | O=S1(=O)CC=Cc2cccc(-c3ccc(F)cc3)c2O1 [compound 32, 9–(4-Fluorophenyl)-3H-1,2-benzoxathiepine 2,2-dioxide]
16 |  | 16400 |  | > 100000 |  | CCOC(=O)c1ccc(-c2cccc3c2OS(=O)(=O)CC=C3)cc1 [compound 34, 9–(4-(Ethoxycarbonyl)phenyl)-3H-1,2-benzoxathiepine 2,2-dioxide]
17 |  | 60900 |  | > 100000 |  | COc1ccc(-c2cccc3c2OS(=O)(=O)CC=C3)cc1 [compound 31, 9–(4-Methoxyphenyl)-3H-1,2-benzoxathiepine 2,2-dioxide]
18 |  | 21100 |  | > 100000 |  | O=S1(=O)CC=Cc2cccc(-c3ccccc3)c2O1 [compound 30, 9-Phenyl-3H-1,2-benzoxathiepine 2,2-dioxide]
